After the bases stand the sugars from the 5' end (letter, count) and the backbone: PS all phosphorothioate, else s phosphorothioate and o phosphodiester by linkage. Methylation of C is not given here. e = 2'-O-(2-methoxyethyl) (MOE); k = constrained ethyl (cEt); d = 2'-deoxy (DNA)
Biological target: APOL1
Conditions: ASO

Sequence	target mRNA inhibition (A431, 2 µM) [%]	target mRNA inhibition (A431, 0.0625 µM) [%]	target mRNA inhibition (A431, 0.25 µM) [%]	target mRNA inhibition (A431, 1 µM) [%]	target mRNA inhibition (A431, 0.0156 µM) [%]	target mRNA inhibition (A431, 0.04 µM) [%]
CTATTAGAGGGCTAGT (sugars kkddddkekekkdddd, PS)	25					
CTGAAGATTGGCTCTG (sugars k2 d4 e3 k2 d5, PS)	54					
CTTATGCTTACTCCAC (sugars k4 d9 k3, PS)		64	75	90		
CTTTAAACTCAGGTGA (sugars k2 d4 e4 k2 d4, PS)	88					
CTTTAAACTCAGGTGA (sugars kkdddddkekeddddd, PS)	87					
CTTTAAACTCAGGTGA (sugars kkkddddkekekdddd, PS)	40					
CTTTATACCAGTGTCT (sugars kkdddddkekeddddd, PS)	97	41	74	92	14	
CTTTATACCAGTGTCT (sugars kkddddekekeddddd, PS)	98	60	82	95	29	50
GAACATTGAAACACCA (sugars k4 d9 k3, PS)		39	70	89		
GAACGCAATGCTGACT (sugars kkddddekekeddddd, PS)	95	40	74	92	19	
GAAGATTGGCTCTGGC (sugars kkddddekekeddddd, PS)	64					
GAAGATTGGCTCTGGC (sugars kkddddkekekddddd, PS)	48					
GAAGATTGGCTCTGGC (sugars kkkddddkdkdkdddd, PS)	51					
GAAGATTGGCTCTGGC (sugars kkkddddkekekdddd, PS)	16					
GAAGCTTTAAACTCAG (sugars k2 d4 e3 k2 d5, PS)	72					
GAATGAGCAGGTCAGA (sugars k4 d9 k3, PS)		41	75	91		
GAATTATGGAATTGCA (sugars k3 d4 k3 e1 d5, PS)	90					
GAATTATGGAATTGCA (sugars kkddddkdkdkddddd, PS)	82					
GAGTATTGTTTTTGTG (sugars kkdddddkekeddddd, PS)	96	75	91	96	33	

Sequence	target mRNA inhibition (A431, 2 µM) [%]	target mRNA inhibition (A431, 0.0625 µM) [%]	target mRNA inhibition (A431, 0.25 µM) [%]	target mRNA inhibition (A431, 1 µM) [%]	target mRNA inhibition (A431, 0.0156 µM) [%]	target mRNA inhibition (A431, 0.04 µM) [%]
GAGTATTGTTTTTGTG (sugars kkddddkekekkdddd, PS)	85					
GAGTATTGTTTTTGTG (sugars kkkddddkekekdddd, PS)	56					
GCAATTTTATGGAACC (sugars k4 d9 k3, PS)				91		42
GCATTCAGAATTTCCA (sugars kkkddddkekeddddd, PS)	84					
GCTAAGTTCCGGTCTC (sugars k4 d9 k3, PS)		50	74	85		
GCTAATTTTCTGACTG (sugars kkdddddkekeddddd, PS)	99	47	82	94	11	
GCTAATTTTCTGACTG (sugars kkddddkdkdkddddd, PS)	93	40	71	87	10	
GCTAATTTTCTGACTG (sugars kkkddddkekekdddd, PS)	88					
GCTTTAAACTCAGGTG (sugars k2 d4 e3 k2 d5, PS)	91					
GCTTTAAACTCAGGTG (sugars k3 d4 k3 e1 d5, PS)	74					
GCTTTAAACTCAGGTG (sugars kekddddeekkddddd, PS)	93					
GCTTTAAACTCAGGTG (sugars kkdddddkekeddddd, PS)	91	35	67	85	6	
GCTTTAAACTCAGGTG (sugars kkkddddkdkdkdddd, PS)	93	54	81	93	18	
GCTTTAAACTCAGGTG (sugars kkkddddkekekdddd, PS)	68					
GGAATTATGGAATTGC (sugars k3 d4 k3 e1 d5, PS)	65					
GGAATTATGGAATTGC (sugars kkddddekekeddddd, PS)	97	62	89	97	23	
GGAATTATGGAATTGC (sugars kkddddkdkdkddddd, PS)	89					
GGCAGTTTTGTAAGTG (sugars kkddddekekeddddd, PS)	75					
